Assay results: US20130172320A1, “PYRIDO [4,3-B] INDOLE AND PYRIDO [3,4-B] INDOLE DERIVATIVES AND METHODS OF USE” (priority 2010, published 2013)

Key:
[1] = molecular target: human recombinant histamine H1 receptor (Homo sapiens, UniProt P35367); experiment: Histamine H1 radioligand binding ([3H]Pyrilamine); conditions: compound at 0.1 μM; 1.2 nM [3H]Pyrilamine; read-out: Binding data (Percentage inhibition) Histamine H1 (0.1 μM)
Experimental: To evaluate in radioligand binding assays the activity of compounds of the invention, human recombinant histamine H1 receptor expressed in Chinese hamster ovary (CHO) cells (De Backer, M. et al, Biochem. Biophys. Res. Comm. 197(3):1601, 1993) in a modified Tris-HCl buffer (50 mM Tris-HCl, pH 7.4, 2 mM MgCl2, 100 mM NaCl, 250 mM Sucrose) was used. Compounds of the invention were incubated with 1.2 nM [^3H]Pyrilamine for 180 min at 25° C. Non-specific binding was estimated in the presence of 1 μM Pyrilamine. Receptor proteins were filtered and washed, the filters were then counted to determine [^3H]Pyrilamine specifically bound. Compounds were screened at 1 μM or lower, using 1% DMSO as vehicle. Biochemical assay results are presented as the percent inhibition of specific binding in Table 2.

[2] = molecular target: T1, rat adrenergic α1B receptor (Rattus norvegicus, UniProt P15823); experiment: Adrenergic α1B radioligand binding ([3H]Prazosin); set-up: species or system Wistar Rat; conditions: compound at 0.1 μM; read-out: Percentage inhibition of ligand binding, Adrenergic (0.1 μM) a1B
T1 construct: rat adrenergic α1B receptor obtained from Wistar Rat liver; from tissue; host or cells: Wistar Rat liver
T1 sequence (P15823 1-515): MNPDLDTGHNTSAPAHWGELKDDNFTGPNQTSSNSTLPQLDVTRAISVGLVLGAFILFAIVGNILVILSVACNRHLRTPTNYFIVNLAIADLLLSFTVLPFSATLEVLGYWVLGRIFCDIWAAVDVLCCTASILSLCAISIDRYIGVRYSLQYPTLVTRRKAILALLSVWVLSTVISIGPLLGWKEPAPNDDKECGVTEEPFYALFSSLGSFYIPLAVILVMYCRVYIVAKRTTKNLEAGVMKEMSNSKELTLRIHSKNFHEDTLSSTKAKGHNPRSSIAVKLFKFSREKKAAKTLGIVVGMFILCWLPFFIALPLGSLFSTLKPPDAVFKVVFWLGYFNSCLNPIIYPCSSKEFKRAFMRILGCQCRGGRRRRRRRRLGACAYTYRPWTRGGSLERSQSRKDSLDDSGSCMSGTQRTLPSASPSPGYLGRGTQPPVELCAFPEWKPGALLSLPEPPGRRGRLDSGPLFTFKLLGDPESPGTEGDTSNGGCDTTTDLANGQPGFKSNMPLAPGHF
Experimental: To evaluate in radioligand binding assays the activity of compounds of the invention, rat adrenergic α1B receptor obtained from Wistar Rat liver (Garcia-S'ainz, J. et al, Biochem. Biophys. Res. Commun. 186:760, 1992; Michel, A. et al, Br. J. Pharmacol. 98:883, 1989) in a modified Tris-HCl buffer (50 mM Tris-HCl buffer, pH 7.4, 0.5 mM EDTA) was used. Compounds of the invention were incubated with 0.25 nM [^3H]Prazosin for 60 min at 25° C. Non-specific binding was estimated in the presence of 10 μM phentolamine. Receptor proteins were filtered and washed, the filters were then counted to determine [^3H]Prazosin specifically bound. Compounds were screened at 1 μM or lower, using 1% DMSO as vehicle. Biochemical assay results are presented as the percent inhibition of specific binding in Table 3.

[3] = molecular target: T2, human recombinant adrenergic α2B receptor (Homo sapiens, UniProt P18089); experiment: Adrenergic α2B radioligand binding ([3H]Rauwolscine); conditions: compound at 0.1 μM; read-out: Percentage inhibition of ligand binding, Adrenergic (0.1 μM) a2B
T2 construct: expressed in transfected cells; host or cells: Chinese hamster ovary (CHO) K1 cells
T2 sequence (P18089 1-450): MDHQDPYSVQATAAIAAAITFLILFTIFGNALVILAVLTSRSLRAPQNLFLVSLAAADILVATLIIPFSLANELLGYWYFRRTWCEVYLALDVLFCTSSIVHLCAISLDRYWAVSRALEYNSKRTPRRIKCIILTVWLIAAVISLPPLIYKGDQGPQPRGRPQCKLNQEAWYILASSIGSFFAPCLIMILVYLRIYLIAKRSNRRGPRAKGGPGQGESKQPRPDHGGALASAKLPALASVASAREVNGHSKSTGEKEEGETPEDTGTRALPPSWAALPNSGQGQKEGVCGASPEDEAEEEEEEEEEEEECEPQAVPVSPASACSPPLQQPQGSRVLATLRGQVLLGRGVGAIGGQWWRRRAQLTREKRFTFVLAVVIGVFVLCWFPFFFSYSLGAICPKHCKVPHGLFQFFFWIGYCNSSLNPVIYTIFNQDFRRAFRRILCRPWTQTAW
Experimental: To evaluate in radioligand binding assays the activity of compounds of the invention, human recombinant adrenergic α2B receptor expressed in Chinese hamster ovary (CHO) K1 cells (Uhlen, S. et al, Eur. J. Pharmacol. 343(1):93, 1998) in a modified Tris-HCl buffer (50 mM Tris-HCl, pH 7.4, 12.5 mM MgCl2, 1 mM EDTA, 0.2% BSA) was used. Compounds of the invention were incubated with 2.5 nM [^3H]Rauwolscine for 60 min at 25° C. Non-specific binding was estimated in the presence of 10 μM Prozosin. Receptor proteins were filtered and washed, the filters were then counted to determine [^3H]Rauwolscine specifically bound. Compounds were screened at 1 μM or lower, using 1% DMSO as vehicle. Biochemical assay results are presented as the percent inhibition of specific binding in Table 3.

[4] = molecular target: T3, human recombinant serotonin (5-Hydroxytryptamine) 5-HT6 receptor (Homo sapiens, UniProt P50406); experiment: Serotonin 5-HT6 radioligand binding ([3H]LSD); conditions: compound at 0.1 μM; read-out: Percentage inhibition of ligand binding, Serotonin (0.1 μM) 5-HT6
T3 construct: expressed in transfected cells; host or cells: human HeLa cells
Experimental: To evaluate in radioligand binding assays the activity of compounds of the invention, human recombinant serotonin (5-Hydroxytryptamine) 5-HT6 receptor expressed in human HeLa cells (Monsma, F. Jr. et al, Mol. Pharmacol. 43:320, 1993) in a modified Tris-HCl buffer (50 mM Tris-HCl, pH 7.4, 150 mM NaCl, 2 mM Ascorbic Acid, 0.001% BSA) was used. Compounds of the invention were incubated with 1.5 nM [3H]Lysergic acid diethylamide (LSD) for 120 min at 37° C. Non-specific binding was estimated in the presence of 5 μM Serotonin (5-HT). Receptor proteins were filtered and washed, the filters were then counted to determine [3H]LSD specifically bound. Compounds were screened at 1 μM or lower, using 1% DMSO as vehicle. Biochemical assay results are presented as the percent inhibition of specific binding in Table 4.

T3 sequence (P50406 whole entry): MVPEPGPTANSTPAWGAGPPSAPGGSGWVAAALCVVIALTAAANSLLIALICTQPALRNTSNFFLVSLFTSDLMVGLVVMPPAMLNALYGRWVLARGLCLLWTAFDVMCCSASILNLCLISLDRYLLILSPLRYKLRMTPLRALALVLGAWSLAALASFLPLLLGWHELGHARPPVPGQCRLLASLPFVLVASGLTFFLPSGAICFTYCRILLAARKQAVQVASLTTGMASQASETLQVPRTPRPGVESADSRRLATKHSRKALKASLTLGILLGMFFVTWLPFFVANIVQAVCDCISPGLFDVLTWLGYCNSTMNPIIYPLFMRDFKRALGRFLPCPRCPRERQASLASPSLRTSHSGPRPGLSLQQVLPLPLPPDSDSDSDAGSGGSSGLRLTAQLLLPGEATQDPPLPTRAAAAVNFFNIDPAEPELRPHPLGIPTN
human recombinant histamine H1 receptor, sequence (P35367 whole entry): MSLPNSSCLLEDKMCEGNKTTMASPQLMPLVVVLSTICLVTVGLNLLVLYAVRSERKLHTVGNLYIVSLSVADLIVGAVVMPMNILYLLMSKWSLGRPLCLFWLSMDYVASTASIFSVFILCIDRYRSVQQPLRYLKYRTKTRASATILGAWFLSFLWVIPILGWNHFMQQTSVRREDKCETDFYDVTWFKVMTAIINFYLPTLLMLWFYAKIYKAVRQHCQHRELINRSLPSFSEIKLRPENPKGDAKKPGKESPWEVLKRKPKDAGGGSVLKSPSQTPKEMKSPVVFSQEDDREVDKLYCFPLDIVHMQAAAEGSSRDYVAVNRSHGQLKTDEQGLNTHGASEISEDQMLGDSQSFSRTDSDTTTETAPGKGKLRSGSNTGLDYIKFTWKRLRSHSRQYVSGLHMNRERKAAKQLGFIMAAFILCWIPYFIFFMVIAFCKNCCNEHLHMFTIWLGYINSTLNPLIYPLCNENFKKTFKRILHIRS

Row | SMILES | inhibition at 0.1 µM [1] [%] | inhibition at 0.1 µM [2] [%] | inhibition at 0.1 µM [3] [%] | inhibition at 0.1 µM [4] [%]
1 | C#CCC1(C)CN(C)Cc2c1n(C)c1ccc(C)cc21 (centres unmarked) [Compound 47, 2,4,5,8-tetramethyl-4-(prop-2-ynyl)-2,3,4,5-tetrahydro-1H-pyrido[4,3-b]indole] | 49 | 34 | 32 | 14
2 | Cc1ccc2c(c1)c1c(n2C)C(C)(CCc2nc(-c3ccccc3)cs2)CN(C)C1 (centres unmarked) [Compound 48] | 89 | 20 | -12 | 22
